{"source": "paper PMC11331448", "about": "(Journal of chemical information and modeling, 2024)", "target": "BChE (Homo sapiens, UniProt P06276)", "sequence (P06276 29-602, species assumed)": "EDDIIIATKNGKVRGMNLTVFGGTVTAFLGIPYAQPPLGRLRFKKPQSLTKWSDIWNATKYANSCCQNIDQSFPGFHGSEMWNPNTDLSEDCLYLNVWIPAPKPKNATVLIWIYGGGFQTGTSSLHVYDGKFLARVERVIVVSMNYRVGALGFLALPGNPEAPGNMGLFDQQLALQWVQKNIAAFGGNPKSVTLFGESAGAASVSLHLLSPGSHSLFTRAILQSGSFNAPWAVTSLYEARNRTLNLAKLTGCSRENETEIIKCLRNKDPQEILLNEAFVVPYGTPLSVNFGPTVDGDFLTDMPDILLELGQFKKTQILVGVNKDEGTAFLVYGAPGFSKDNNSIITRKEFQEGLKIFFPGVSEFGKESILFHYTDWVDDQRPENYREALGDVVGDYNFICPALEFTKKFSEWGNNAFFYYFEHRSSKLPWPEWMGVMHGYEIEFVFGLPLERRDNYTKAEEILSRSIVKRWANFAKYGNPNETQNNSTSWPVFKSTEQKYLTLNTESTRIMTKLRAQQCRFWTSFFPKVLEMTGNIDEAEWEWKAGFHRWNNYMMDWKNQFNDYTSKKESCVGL", "settings": "BChE versus AChE inhibition, colorimetric kits"}
{"molecule": "OC(CN1CCCCC1)c1c[nH]c2ccccc12", "note": "(stereo not shown) [CPI7075, 1-(1H-indol-3-yl)-2-(piperidin-1-yl)ethanol]", "values": [{"measurement": "BChE selectivity in vitro", "value": "selective BChE inhibitors"}]}
